Test results as given in US4929601A, “Tripeptides useful as immunostimulants as well as in the prevention of metastases” (Ellem Industria Farmaceutica, S.p.A., priority 1987, dated 1990).

Legend:
Assay type in all cases: cell-based
[1] = system: PHA-stimulated human T lymphocytes; test: DNA synthesis in PHA-stimulated human T lymphocytes in vitro (3H-thymidine); settings: for DNA synthesis, 3H-thymidine c.p.m. (mean): control 22642
Procedure: Human T lymphocytes, incubated in vitro for 72 hours in presence of 0.5% PHA and different concentrations of the tripeptides under examination, have been analyzed for DNA synthesis (cell proliferation) by means of 3H-thymidine labelling.

Human T lymphocytes = test: Effect on cell cycle (propidium iodide, flow cytometer); settings: 1 μg/ml, 72 hours with PHA
Procedure: Human T lymphocytes have been incubated for 72 hours in presence of PHA and the tripeptides under examination (1 μg/ml). DNA has then been stained with propidium iodide and cells have been analyzed with a flow cytometer.

[2] = system: pure human T lymphocytes, without macrophages; test: Lymphokine production by pure human T lymphocytes without macrophages (+IL-1): BCGF activity
Excerpt: The supernatants have been collected, filtered (0.2 μm) and assayed for the presence of IL-2 or BCGF activity, by adding them at different concentrations to fresh T lymphocytes or to long term cultured B cells. The proliferating activity of these cells, dependent on the presence of the respective growth factor, has been evaluated through 3H-thymidine incorporation.
The lymphokine production by human T lymphocytes purified through […] on nylon wool column has been evaluated with the same methods as in the previous experiment.
In order to obviate the lack of macrophages, recombinant IL-1 β (Genzyme) has been added at the concentration of 25 Units/ml.

## N=C(N)NCCC[C@H](N)C(=O)NCC(=O)N[C@@H](CC(=O)O)C(=O)O [ARG--GLY--ASP, L-Arginyl-glycyl-L-aspartic acid]
[1]; 72 hours, 0.5% PHA
  PHA-induced human T lymphocyte proliferation (DNA synthesis): able to increase
[1]; peptide 0.0001 mcg/ml
  DNA synthesis Δ %: -3%
[1]; peptide 0.0001 mcg/ml, 72 hours, 0.5% PHA
  DNA synthesis, 3H-thymidine c.p.m. (mean): 22002 c.p.m.
[1]; peptide 0.001 mcg/ml
  DNA synthesis Δ %: +4%
[1]; peptide 0.001 mcg/ml, 72 hours, 0.5% PHA
  DNA synthesis, 3H-thymidine c.p.m. (mean): 23519 c.p.m.
[1]; peptide 0.01 mcg/ml
  DNA synthesis Δ %: +6%
[1]; peptide 0.01 mcg/ml, 72 hours, 0.5% PHA
  DNA synthesis, 3H-thymidine c.p.m. (mean): 24034 c.p.m.
[1]; peptide 0.1 mcg/ml
  DNA synthesis Δ %: +17%
[1]; peptide 0.1 mcg/ml, 72 hours, 0.5% PHA
  DNA synthesis, 3H-thymidine c.p.m. (mean): 25814 c.p.m.
[1]; peptide 1 mcg/ml
  DNA synthesis Δ %: +11%
[1]; peptide 1 mcg/ml, 72 hours, 0.5% PHA
  DNA synthesis, 3H-thymidine c.p.m. (mean): 25163 c.p.m.
[1]; peptide 10 mcg/ml
  DNA synthesis Δ %: +6%
[1]; peptide 10 mcg/ml, 72 hours, 0.5% PHA
  DNA synthesis, 3H-thymidine c.p.m. (mean): 24111 c.p.m.
Human T lymphocytes
  G2 + M % cells, difference from T + PHA: +6.12
  Go-Gl % cells, difference from T + PHA: -5.67
  S % cells, difference from T + PHA: -1.15
Human T lymphocytes; T + PHA 6.02
  CELL PHASES G2 + M % CELLS: 12.14%
Human T lymphocytes; T + PHA 30.61
  CELL PHASES S % CELLS: 29.46%
Human T lymphocytes; T + PHA 63.36
  CELL PHASES Go-Gl % CELLS: 57.69%
[2]; 1 mcg/ml, 3.125% of supernatant
  BCGF activity Δ %: +94%
[2]; 1 mcg/ml, 3.125% of supernatant, T + PHA + IL-1 318
  BCGF ACTIVITY c.p.m.: 618 c.p.m.
[2]; 1 mcg/ml, 6.25% of supernatant
  BCGF activity Δ %: +9%
[2]; 1 mcg/ml, 6.25% of supernatant, T + PHA + IL-1 582
  BCGF ACTIVITY c.p.m.: 634 c.p.m.
[2]; 1 mcg/ml, 12.5% of supernatant
  BCGF activity Δ %: +141%
[2]; 1 mcg/ml, 12.5% of supernatant, T + PHA + IL-1 1104
  BCGF ACTIVITY c.p.m.: 2663 c.p.m.
[2]; 1 mcg/ml, 25% of supernatant
  BCGF activity Δ %: +106%
[2]; 1 mcg/ml, 25% of supernatant, T + PHA + IL-1 2507
  BCGF ACTIVITY c.p.m.: 5172 c.p.m.
[2]; 1 mcg/ml, 50% of supernatant
  BCGF activity Δ %: +95%
[2]; 1 mcg/ml, 50% of supernatant, T + PHA + IL-1 5056
  BCGF ACTIVITY c.p.m.: 9837 c.p.m.
[2]; 10 mcg/ml, 3.125% of supernatant
  BCGF activity Δ %: +147%
[2]; 10 mcg/ml, 3.125% of supernatant, T + PHA + IL-1 318
  BCGF ACTIVITY c.p.m.: 784 c.p.m.
[2]; 10 mcg/ml, 6.25% of supernatant
  BCGF activity Δ %: +49%
[2]; 10 mcg/ml, 6.25% of supernatant, T + PHA + IL-1 582
  BCGF ACTIVITY c.p.m.: 866 c.p.m.
[2]; 10 mcg/ml, 12.5% of supernatant
  BCGF activity Δ %: +171%
[2]; 10 mcg/ml, 12.5% of supernatant, T + PHA + IL-1 1104
  BCGF ACTIVITY c.p.m.: 2997 c.p.m.
[2]; 10 mcg/ml, 25% of supernatant
  BCGF activity Δ %: +173%
[2]; 10 mcg/ml, 25% of supernatant, T + PHA + IL-1 2507
  BCGF ACTIVITY c.p.m.: 6849 c.p.m.
[2]; 10 mcg/ml, 50% of supernatant
  BCGF activity Δ %: +125%
[2]; 10 mcg/ml, 50% of supernatant, T + PHA + IL-1 5056
  BCGF ACTIVITY c.p.m.: 11364 c.p.m.
[2]; both for IL-2 and BCGF, IL-1 β 25 Units/ml
  effect on lymphokine production by pure T lymphocytes: comparable with that of the other reference compounds
